In ChEMBL document CHEMBL3580659, “One-pot multicomponent synthesis of indole incorporated thiazolylcoumarins and their antibacterial, anticancer and DNA cleavage studies” (2015):

Legend:
Type in all cases: functional
[1] = tested on: U-251; test: Cytotoxicity against human U251 cells assessed as cell growth level at 100 uM after 48 hrs by sulforhodamine B assay
[2] = tested on: SK-MEL-2; test: Cytotoxicity against human SK-MEL-2 cells assessed as cell growth level at 100 uM after 48 hrs by sulforhodamine B assay
[3] = tested on: IGROV-1; test: Cytotoxicity against human IGROV1 cells assessed as cell growth level at 100 uM after 48 hrs by sulforhodamine B assay
[4] = tested on: OVCAR-4; test: Cytotoxicity against human OVCAR4 cells assessed as cell growth level at 100 uM after 48 hrs by sulforhodamine B assay
[5] = tested on: CAKI-1; test: Cytotoxicity against human CAKI-1 cells assessed as cell growth level at 100 uM after 48 hrs by sulforhodamine B assay
[6] = tested on: COLO 205; test: Cytotoxicity against human COLO205 cells assessed as cell growth level at 10 nM after 48 hrs by sulforhodamine B assay
[7] = tested on: 786-0; test: Cytotoxicity against human 786-0 cells assessed as cell growth level at 10 nM after 48 hrs by sulforhodamine B assay
[8] = tested on: DU-145; test: Cytotoxicity against human DU145 cells assessed as cell growth level at 10 nM after 48 hrs by sulforhodamine B assay
[9] = tested on: MCF7; test: Cytotoxicity against human MCF7 cells assessed as cell growth level at 10 nM after 48 hrs by sulforhodamine B assay
[10] = tested on: BT-549; test: Cytotoxicity against human BT549 cells assessed as cell growth level at 10 nM after 48 hrs by sulforhodamine B assay
[11] = tested on: MOLT-4; test: Cytotoxicity against human MOLT4 cells assessed as cell growth level at 100 nM after 48 hrs by sulforhodamine B assay
[12] = tested on: SF-539; test: Cytotoxicity against human SF539 cells assessed as cell growth level at 100 nM after 48 hrs by sulforhodamine B assay
[13] = tested on: LOX IMVI; test: Cytotoxicity against human LOXIMVI cells assessed as cell growth level at 100 nM after 48 hrs by sulforhodamine B assay
[14] = tested on: CCRF-CEM; test: Cytotoxicity against human CCRF-CEM cells assessed as cell growth level at 10 uM after 48 hrs by sulforhodamine B assay
[15] = tested on: MOLT-4; test: Cytotoxicity against human MOLT4 cells assessed as cell growth level at 10 uM after 48 hrs by sulforhodamine B assay
[16] = tested on: HOP-62; test: Cytotoxicity against human HOP62 cells assessed as cell growth level at 10 uM after 48 hrs by sulforhodamine B assay
[17] = tested on: NCI-H226; test: Cytotoxicity against human NCI-H226 cells assessed as cell growth level at 10 uM after 48 hrs by sulforhodamine B assay
[18] = tested on: SR; test: Cytotoxicity against human SR cells assessed as cell growth level at 1 uM after 48 hrs by sulforhodamine B assay
[19] = tested on: COLO 205; test: Cytotoxicity against human COLO205 cells assessed as cell growth level at 1 uM after 48 hrs by sulforhodamine B assay
[20] = tested on: HCC 2998; test: Cytotoxicity against human HCC2998 cells assessed as cell growth level at 1 uM after 48 hrs by sulforhodamine B assay
[21] = tested on: HCC 2998; test: Cytotoxicity against human HCC2998 cells assessed as cell growth level at 10 uM after 48 hrs by sulforhodamine B assay
[22] = tested on: SNB-19; test: Cytotoxicity against human SNB19 cells assessed as cell growth level at 10 uM after 48 hrs by sulforhodamine B assay
[23] = tested on: OVCAR-8; test: Cytotoxicity against human OVCAR8 cells assessed as cell growth level at 10 uM after 48 hrs by sulforhodamine B assay
[24] = tested on: A498; test: Cytotoxicity against human A498 cells assessed as cell growth level at 10 uM after 48 hrs by sulforhodamine B assay
[25] = tested on: PC-3; test: Cytotoxicity against human PC3 cells assessed as cell growth level at 10 uM after 48 hrs by sulforhodamine B assay
[26] = tested on: SNB-19; test: Cytotoxicity against human SNB19 cells assessed as cell growth level at 1 uM after 48 hrs by sulforhodamine B assay
[27] = tested on: MDA-MB-435; test: Cytotoxicity against human MDA-MB-435 cells assessed as cell growth level at 1 uM after 48 hrs by sulforhodamine B assay
[28] = tested on: CAKI-1; test: Cytotoxicity against human CAKI-1 cells assessed as cell growth level at 1 uM after 48 hrs by sulforhodamine B assay
[29] = tested on: K562; test: Cytotoxicity against human K562 cells assessed as cell growth level at 100 uM after 48 hrs by sulforhodamine B assay
[30] = tested on: MOLT-4; test: Cytotoxicity against human MOLT4 cells after 48 hrs by sulforhodamine B assay; conditions: MOLT-4, 48 h
[31] = tested on: A549; test: Cytotoxicity against human A549/ATCC cells after 48 hrs by sulforhodamine B assay; conditions: A549, 48 h
[32] = tested on: NCI-H460; test: Cytotoxicity against human NCI-H460 cells after 48 hrs by sulforhodamine B assay; conditions: NCI-H460, 48 h
[33] = tested on: A498; test: Cytotoxicity against human A498 cells after 48 hrs by sulforhodamine B assay; conditions: A498, 48 h
[34] = tested on: MCF7; test: Cytotoxicity against human MCF7 cells after 48 hrs by sulforhodamine B assay; conditions: MCF7, 48 h
[35] = tested on: MDA-MB-231; test: Cytotoxicity against human MDA-MB-231/ATCC cells after 48 hrs by sulforhodamine B assay; conditions: MDA-MB-231, 48 h
[36] = tested on: T47D; test: Cytotoxicity against human T47D cells after 48 hrs by sulforhodamine B assay
[37] = tested on: HL-60(TB); test: Cytotoxicity against human HL-60(TB) cells assessed as cell growth level at 10 nM after 48 hrs by sulforhodamine B assay
[38] = tested on: SR; test: Cytotoxicity against human SR cells assessed as cell growth level at 10 nM after 48 hrs by sulforhodamine B assay
[39] = read-out: LC50 (the source's name)
[40] = read-out: pLC50 (the source's name) (converted)

`O=c1oc2ccccc2cc1-c1csc(N/N=C/c2c[nH]c3ccccc23)n1` was tested, and the Activity [1] was -89%, the Activity [2] was -93% and the Activity [3] was -71%. It also gave an Activity [4] of -24%, an Activity [5] of -57% and an Activity [6] of 110%. For the same compound, the Activity [7] was 86%, the Activity [8] was 95% and the Activity [9] was 98%. It also gave an Activity [10] of 95%, an Activity [11] of 97% and an Activity [12] of 88%. The Activity [13] was 92%, the Activity [14] was -26.91% and the Activity [15] was -32.32%. It also gave an Activity [16] of 11.3%, an Activity [17] of 42.82% and an Activity [18] of 81%. For the same compound, the Activity [19] was 109%, the Activity [20] was 84% and the Activity [21] was 8.49%. The Activity [22] was 39.43%, the Activity [23] was 2.99% and the Activity [24] was 6.72%. The Activity [25] was -37.33%, the Activity [26] was 73% and the Activity [27] was 79%. It also gave an Activity [28] of 88%, an Activity [29] of -38% and a GI50 ([30]; read-out: GI50) of 0.4 µM. The LC50 ([30]; read-out: LC50) was over 100 µM, the TGI ([30]; read-out: TGI) was 3.27 µM and the GI50 ([30]; read-out: pGI50 (converted)) was 0.407 µM. The LC50 ([30]; read-out: pLC50 (converted)) was over 100 µM, the TGI ([30]; read-out: pTGI (converted)) was 3.24 µM and the GI50 ([31]; read-out: GI50) was 1.54 µM. It also gave a CC50 [31, 39] of over 100 µM, a TGI ([31]; read-out: TGI) of 5.3 µM and a GI50 ([31]; read-out: pGI50 (converted)) of 1.55 µM. It also gave a CC50 [31, 40] of over 100 µM, a TGI ([31]; read-out: pTGI) of 5.25 µM and a GI50 ([32]; read-out: GI50) of 2.84 µM. It also gave an LC50 ([32]; read-out: LC50) of over 100 µM, a TGI ([32]; read-out: TGI) of 9.69 µM and a GI50 ([32]; read-out: pGI50 (converted)) of 2.82 µM. It also gave an LC50 ([32]; read-out: pLC50 (converted)) of over 100 µM, a TGI ([32]; read-out: pTGI (converted)) of 9.77 µM and a GI50 ([33]; read-out: GI50) of 2.21 µM. It also gave a CC50 [33, 39] of over 100 µM, a TGI ([33]; read-out: TGI) of 8.2 µM and a GI50 ([33]; read-out: pGI50 (converted)) of 2.19 µM. For the same compound, the CC50 [33, 40] was over 100 µM, the TGI ([33]; read-out: pTGI (converted)) was 8.13 µM and the GI50 ([34]; read-out: GI50) was 2.4 µM. For the same compound, the CC50 [34, 39] was over 100 µM, the TGI ([34]; read-out: TGI) was 15.5 µM and the GI50 ([34]; read-out: pGI50 (converted)) was 2.4 µM. The CC50 [34, 40] was over 100 µM, the TGI ([34]; read-out: pTGI (converted)) was 15.5 µM and the GI50 ([35]; read-out: GI50) was 1.39 µM. For the same compound, the CC50 [35, 39] was 7.94 µM, the TGI ([35]; read-out: TGI) was 3.33 µM and the GI50 ([35]; read-out: pGI50 (converted)) was 1.38 µM. It also gave a CC50 [35, 40] of 7.94 µM, a TGI ([35]; read-out: pTGI (converted)) of 3.31 µM and a GI50 ([36]; read-out: GI50) of 1.98 µM. It also gave a CC50 [36, 39] of over 100 µM, a TGI ([36]; read-out: TGI) of 5.9 µM and a GI50 ([36]; read-out: pGI50 (converted)) of 2 µM. The CC50 [36, 40] was over 100 µM, the TGI ([36]; read-out: pTGI (converted)) was 5.89 µM and the Activity [37] was 92%. For the same compound, the Activity [38] was 94%.
